From US20250179059A1 (The Regents of the University of California, priority 2021, published 2025)

Columns and labels:
[1] = tested on: human SKM-1 acute myeloid leukemia cells; assay: SKM-1 antiproliferation cell-based assay (ATPlite); conditions: Homo sapiens, SKM-1, 96 h, SKM-1 antiproliferation assay, 4 days, Table C2
In short: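 Log-phase cells in RPMI 1640/15% FBS were seeded at 34722 cells/mL and exposed for 4 days to nine-concentration DMSO serial dilutions in triplicate. Viability was read as ATP luminescence (ATPlite 1step), and IC50 values came from variable-slope non-linear regression.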

[2] = molecular target: T1, human BRD4 bromodomain II (Homo sapiens, UniProt O60885); assay: Bromodomain binding assay (AlphaScreen), BRD4 BDII; conditions: AlphaScreen assay, Table C2; read-out: BRD4 BDII IC50
T1 construct: human BRD4 bromodomain II [based on Genbank NM_058243, residues 349-460]; host or cells: E. coli
In short: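 AlphaScreen competition: His6-BRD4 BDI (aa 44-170) or BDII (aa 349-460) vs biotin-H4(1-21) K5/K8/K12/K16Ac peptide; Ni-chelate acceptor/streptavidin donor beads. HEPES pH 7.5, NaCl, CHAPS, BSA, 1% DMSO; RT. 10-pt 3-fold titration, % peptide binding fitted → IC50.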

| Structure (SMILES) | GI50 [1] [nM] | IC50 [2] [nM] |
| --- | --- | --- |
| CCN1CCN(c2cc(-c3cc(F)cc(-c4ccc(-n5ccn(C)c5=O)c(Cl)c4)c3O)ccn2)CC1 [Example 469, 1-(3-chloro-3′-(2-(4-ethylpiperazin-1-yl)pyridin-4-yl)-5′-fluoro-2′-hydroxy-[1,1′-biphenyl]-4-yl)-^3-methyl-1H-imidazol-2(3H)-one] | 0.3 to 30 | 0.01 to 1 |
| Cn1ccn(-c2ccc(-c3cc(F)cc(-c4ccnc(N5CCN(CC6CC6)CC5)c4)c3O)cc2Cl)c1=O [Example 470, 1-(3-chloro-3′-(2-(4-(cyclopropylmethyl)piperazin-1-yl)pyridin-4-yl)-5′-fluoro-2′-hydroxy-[1,1′-biphenyl]-4-yl)-3-methyl-1H-imidazol-2(3H)-one] | 0.3 to 30 | 1 to 10 |
| Cn1ccn(-c2ccc(-c3cc(F)cc(-c4ccnc(N5CCN(CCO)CC5)c4)c3O)cc2Cl)c1=O [Example 471, 1-(3-chloro-5′-fluoro-2′-hydroxy-3′-(2-(4-(2-hydroxyethyl)piperazin-1-yl)pyridin-4-yl)-[1,1′-biphenyl]-4-yl)-3-methyl-1H-imidazol-2(3H)-one] | 0.3 to 30 | 0.01 to 1 |
| Cn1ccn(-c2ccc(-c3cc(F)cc(-c4cncc(N5CCNCC5)c4)c3O)cc2Cl)c1=O [Example 472, 1-(3-chloro-5′-fluoro-2′-hydroxy-3′-(5-(piperazin-1-yl)pyridin-3-yl)-[1,1′-biphenyl]-4-yl)-^3-methyl-1H-imidazol-2(3H)-one] | 0.3 to 30 | 1 to 10 |
| O=c1sccn1-c1ccc(-c2cc(F)cc(-c3ccnc(N4CCNCC4)c3)c2O)cc1Cl [Example 473, 3-(3-chloro-5′-fluoro-2′-hydroxy-3′-(2-(piperazin-1-yl)pyridin-4-yl)-[1,1′-biphenyl]-4-yl)thiazol-2(3H)-one] | 0.3 to 30 | 1 to 10 |
| C[C@@H]1CN(c2cncc(-c3cc(F)cc(-c4ccc(-n5ccn(C)c5=O)c(Cl)c4)c3O)c2)CCN1C [Example 474, (R)-1-(3-chloro-3′-(5-(3,4-dimethylpiperazin-1-yl)pyridin-3-yl)-5′-fluoro-2′-hydroxy-[1,1′-biphenyl]-4-yl)-3-methyl-1H-imidazol-2(3H)-one] | 0.3 to 30 | 0.01 to 1 |
| CN(C)[C@H]1CCN(c2cncc(-c3cc(F)cc(-c4ccc(-n5ccn(C)c5=O)c(Cl)c4)c3O)c2)C1 [Example 475, (S)-1-(3-chloro-3′-(5-(3-(dimethylamino)pyrrolidin-1-yl)pyridin-3-yl)-5′-fluoro-2′-hydroxy-[1,1′-biphenyl]-4-yl)-3-methyl-1H-imidazol-2(3H)-one] | 0.3 to 30 | 0.01 to 1 |
| CN[C@H]1CCN(c2cncc(-c3cc(F)cc(-c4ccc(-n5ccn(C)c5=O)c(Cl)c4)c3O)c2)C1 [Example 476, (S)-1-(3-chloro-5′-fluoro-2′-hydroxy-3′-(5-(3-(methylamino)pyrrolidin-1-yl)pyridin-3-yl)-[1,1′-biphenyl]-4-yl)-3-methyl-1H-imidazol-2(3H)-one] | 0.3 to 30 | 0.01 to 1 |
| CN1CCN(c2ccc(-c3cc(F)cc(-c4ccc(=O)n(C5CCNCC5)c4)c3O)cc2Cl)C1=O [Example 477, 5-(3′-chloro-5-fluoro-2-hydroxy-4′-(3-methyl-2-oxoimidazolidin-1-yl)-[1,1′-biphenyl]-3-yl)-1-(piperidin-4-yl)pyridin-2(1H)-one] | 30 to 300 | 1 to 10 |
| CN[C@H]1CCCN(c2cncc(-c3cc(F)cc(-c4ccc(-n5ccn(C)c5=O)c(Cl)c4)c3O)c2)C1 [Example 478, (S)-1-(3-chloro-5′-fluoro-2′-hydroxy-3′-(5-(3-(methylamino)piperidin-1-yl)pyridin-3-yl)-[1,1′-biphenyl]-4-yl)-3-methyl-1H-imidazol-2(3H)-one] | 0.3 to 30 | 0.01 to 1 |
| Cn1ccn(-c2ccc(-c3cc(F)cc(-c4cc(N5CCNCC5)c5cc[nH]c5c4)c3O)cc2Cl)c1=O [Example 479, 1-(3-chloro-5′-fluoro-2′-hydroxy-3′-(4-(piperazin-1-yl)-1H-indol-6-yl)-[1,1′-biphenyl]-4-yl)-3-methyl-1H-imidazol-2(3H)-one] | 0.3 to 30 | 1 to 10 |
